Test results published in ChEMBL document CHEMBL1614632, “Trend analysis of a database of intravenous pharmacokinetic parameters in humans for 670 drug compounds” (Drug Metab Dispos, 2008).

How the values were obtained:
[1] = human, in vivo, iv
clinical [2] = details: human, in vivo, iv
clinical [3] = details: human, in vivo, iv, CL
clinical [4] = details: human, in vivo, iv, Vdss
clinical [5] = details: human, in vivo, iv; remark: listed apart in the source
[6] = human, in vivo, iv; remark: listed apart in the source
[7] = human, in vivo, iv; remark: listed apart in the source
[8] = human, in vivo, iv; remark: listed apart in the source
clinical [9] = details: human, in vivo, iv, t1/2

Row | SMILES | t1/2 [1] [h] | MRT (clinical [2]) [h] | clearance (clinical [3]) [mL/min/kg] | Vd (clinical [4]) [L/kg] | fraction unbound (clinical [5]) | Vdss [6] [L/kg] | MRT [7] [h] | CL [8] [mL/min/kg] | half-life (clinical [9]) [h]
1 | COc1cc2c(cc1OC)[C@@H](Cc1cc(OC)c(OC)c(OC)c1)[N+](C)(CCCOC(=O)CC/C=C/CCC(=O)OCCC[N+]1(C)CCc3cc(OC)c(OC)cc3[C@H]1Cc1cc(OC)c(OC)c(OC)c1)CC2 (stereo partly specified) | 0.83 | 0.87 | 5.2 | 0.27 | 0.7 | – | – | – | –
2 | O=[N+]([O-])O[C@@H]1CO[C@H]2[C@@H]1OC[C@@H]2O (stereo in doubt; form 1) [ISOSORBIDE MONONITRATE] | 1.9 | – | – | – | – | 0.86 | 2.3 | 6.2 | –
3 | O=[N+]([O-])O[C@@H]1CO[C@H]2[C@@H]1OC[C@@H]2O (stereo in doubt; form 2) [ISOSORBIDE MONONITRATE] | 4.1 | – | – | 0.7 | – | – | 5.8 | 2 | –
4 | CCC1=C[C@@H]2CN(C1)Cc1c([nH]c3ccccc13)[C@@](C(=O)OC)(c1cc3c(cc1OC)N(C)[C@H]1[C@@](O)(C(=O)OC)[C@H](OC(C)=O)[C@]4(CC)C=CCN5CC[C@]31[C@@H]54)C2 (stereo in doubt; form 2) [VINORELBINE] | 26 | – | – | – | 0.87 | 23 | 18 | 20 | –
5 | CC1CNc2c(cccc2S(=O)(=O)N[C@@H](CCCNC(=N)N)C(=O)N2CC[C@@H](C)C[C@@H]2C(=O)O)C1 (stereo partly specified) [ARGATROBAN] | 0.4 | 0.57 | 5 | 0.17 | – | – | – | – | –
6 | C[C@H]1[C@H](OC(=O)CCC(=O)O)O[C@@H]2O[C@@]3(C)CC[C@H]4[C@H](C)CC[C@@H]1[C@@]24OO3 [ARTESUNATE] | – | 0.32 | – | – | 0.25 | – | – | 1070 | 0.22
7 | CCN(CC)CCCC(C)Nc1ccnc2cc(Cl)ccc12 (stereo unspecified) [CHLOROQUINE] | 570 | 740 | 4.1 | 140 | – | – | – | – | –
8 | Clc1cccc(Cl)c1N=C1NCCN1 [CLONIDINE] | 7.6 | 14 | 4 | 3.3 | 0.56 | – | – | – | –
9 | COc1cc2c(c(OC)c1OC)-c1ccc(OC)c(=O)cc1[C@@H](NC(C)=O)CC2 [COLCHICINE] | 58 | 49 | 2.1 | 6.1 | – | – | – | – | –
10 | O=P1(N(CCCl)CCCl)NCCCO1 (stereo unspecified) [CYCLOPHOSPHAMIDE ANHYDROUS] | 8 | 11 | – | – | – | – | – | 1.1 | –
11 | COc1cccc2c1C(=O)c1c(O)c3c(c(O)c1C2=O)C[C@@](O)(C(=O)CO)C[C@@H]3O[C@H]1C[C@H](N)[C@@H](O)[C@H](C)O1 [EPIRUBICIN] | 36 | 38 | 20 | 45 | – | – | – | – | –
12 | COC(=O)CCc1ccc(OCC(O)CNC(C)C)cc1 (stereo unspecified) [ESMOLOL] | 0.15 | 0.07 | 290 | 1.2 | 0.59 | – | – | – | –
13 | O=[N+]([O-])O[C@H]1CO[C@H]2[C@@H]1OC[C@H]2O[N+](=O)[O-] [ISOSORBIDE DINITRATE] | – | 1 | 31 | – | 0.72 | 1.9 | – | – | 1.69
14 | C[C@@H](O)[C@H]1C(=O)N2C(C(=O)O)=C(S[C@@H]3CN[C@H](C(=O)N(C)C)C3)[C@H](C)[C@H]12 [MEROPENEM] | – | – | 3.9 | – | 0.87 | – | 1.3 | – | 1
15 | COC(=O)C(c1ccccc1)C1CCCCN1 (stereo unspecified) [METHYLPHENIDATE] | 4.8 | – | – | – | 0.85 | 2.2 | 4.5 | 0.55 | –
16 | NCCCC[C@H](NC(=O)[C@@H](Cc1cc(Br)c(O)c(Br)c1)NC(=O)N1CCC(N2Cc3ccccc3NC2=O)CC1)C(=O)N1CCN(c2ccncc2)CC1 [OLCEGEPANT] | – | 1.9 | 2.6 | – | – | 0.31 | – | – | 2.5
17 | NCCC(O)(P(=O)(O)O)P(=O)(O)O [PAMIDRONIC ACID] | 32 | 12 | 2.5 | 1.8 | – | – | – | – | –
18 | COc1ccnc(C[S+]([O-])c2nc3ccc(OC(F)F)cc3[nH]2)c1OC (stereo unspecified) [PANTOPRAZOLE] | – | 1.9 | 2.2 | – | 0.02 | 0.17 | – | – | 1.9
19 | N=C(N)c1ccc(OCCCCCOc2ccc(C(=N)N)cc2)cc1 [PENTAMIDINE] | 25 | 12 | 74 | 53 | – | – | – | – | –
20 | COc1cc(NC(C)CCCN)c2ncccc2c1 (stereo unspecified) [PRIMAQUINE] | 7.1 | 11 | 5.8 | 4 | – | – | – | – | –
